Source: patent EP4813979A1, “COMPOUND FOR EGFR PROTEIN DEGRADATION AND USE THEREOF” (TYK Medicines, Inc., priority 2023, dated 2025)
Like-named read-outs stand apart in the source and are kept apart here.

Tests used:
[1] = target: EGFR in Baf3-19del-T790M-C797S (Homo sapiens, UniProt P00533, C797S/DEL746-750/T790M); experiment: EGFR PROTAC HTRF experiment (total EGFR degradation); format: cell-based
Summary of the method: (§1)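 Ba/F3 clones stably expressing EGFR L858R/T790M/C797S or del19/T790M/C797S were treated with compound; total EGFR measured by HTRF with Eu and d2 antibodies. DC50 and Dmax derived from fitted curves.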

[2] = target: EGFR in Baf3-L858R-T790M-C797S (Homo sapiens, UniProt P00533, C797S/L858R/T790M); experiment: as above; format: cell-based
Summary of the method: as §1

[3] = Pharmacokinetic tests in male SD rats; format: in vivo; conditions: oral gavage (po), 10 mg/kg, plasma; for AUC(0-inf) / AUC(0-t) / Cmax / MRT last / Tmax: rat
Summary of the method: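 Fasted male SD rats (n=3) dosed 10 mg/kg by oral gavage as 1 mg/mL solution in 10% DMSO/90% 0.5% MC. Tail-vein EDTA plasma sampled 0.5–24 h, parent drug quantified by LC-MS/MS; AUC, T1/2, Cmax, Tmax by non-compartmental analysis.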

[4] = Baf3-DTC, incubated 16 hours, HTRF total EGFR; read-out: Baf3-DTC DC50
[5] = Baf3-DTC, incubated 16 hours, HTRF total EGFR; read-out: Baf3-DTC Dmax
[6] = Baf3-LTC, incubated 16 hours, HTRF total EGFR; read-out: Baf3-LTC DC50
[7] = Baf3-LTC, incubated 16 hours, HTRF total EGFR; read-out: Baf3-LTC Dmax

Chain of EGFR in Baf3-L858R-T790M-C797S (P00533 25-1210 T790M/C797S/L858R): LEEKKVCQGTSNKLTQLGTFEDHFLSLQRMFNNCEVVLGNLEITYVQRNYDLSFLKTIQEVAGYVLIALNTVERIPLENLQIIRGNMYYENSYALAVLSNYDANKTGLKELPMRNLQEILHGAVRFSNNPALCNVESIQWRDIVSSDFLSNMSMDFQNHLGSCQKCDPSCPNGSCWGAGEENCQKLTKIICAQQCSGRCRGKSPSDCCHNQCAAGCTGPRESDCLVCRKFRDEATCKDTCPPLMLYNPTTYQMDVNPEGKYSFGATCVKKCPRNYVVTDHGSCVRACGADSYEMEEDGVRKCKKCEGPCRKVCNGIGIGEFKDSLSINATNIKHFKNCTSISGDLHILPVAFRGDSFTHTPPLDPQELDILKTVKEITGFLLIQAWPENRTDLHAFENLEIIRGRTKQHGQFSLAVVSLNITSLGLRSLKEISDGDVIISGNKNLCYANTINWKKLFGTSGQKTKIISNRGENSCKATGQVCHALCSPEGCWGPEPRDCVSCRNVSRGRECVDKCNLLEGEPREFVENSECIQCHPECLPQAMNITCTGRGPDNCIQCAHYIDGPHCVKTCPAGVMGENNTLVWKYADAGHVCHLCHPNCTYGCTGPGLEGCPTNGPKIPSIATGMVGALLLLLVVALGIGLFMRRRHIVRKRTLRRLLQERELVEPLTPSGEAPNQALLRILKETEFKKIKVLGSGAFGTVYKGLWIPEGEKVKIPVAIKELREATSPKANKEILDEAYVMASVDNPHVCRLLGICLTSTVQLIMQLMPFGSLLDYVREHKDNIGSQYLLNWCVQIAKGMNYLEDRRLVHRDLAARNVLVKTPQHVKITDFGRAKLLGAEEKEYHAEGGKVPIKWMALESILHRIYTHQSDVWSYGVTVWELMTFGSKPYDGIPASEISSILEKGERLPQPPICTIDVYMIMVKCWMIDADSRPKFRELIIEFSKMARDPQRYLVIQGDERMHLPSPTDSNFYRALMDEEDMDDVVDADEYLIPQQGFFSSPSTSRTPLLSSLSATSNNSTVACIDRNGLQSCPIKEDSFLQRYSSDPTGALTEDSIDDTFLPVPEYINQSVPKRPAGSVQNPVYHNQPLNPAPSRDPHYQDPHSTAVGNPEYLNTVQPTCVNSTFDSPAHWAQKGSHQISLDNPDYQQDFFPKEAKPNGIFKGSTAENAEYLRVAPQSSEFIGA
Chain of EGFR in Baf3-19del-T790M-C797S (P00533 with tags, fused parts or gaps DEL746-750/T790M/C797S): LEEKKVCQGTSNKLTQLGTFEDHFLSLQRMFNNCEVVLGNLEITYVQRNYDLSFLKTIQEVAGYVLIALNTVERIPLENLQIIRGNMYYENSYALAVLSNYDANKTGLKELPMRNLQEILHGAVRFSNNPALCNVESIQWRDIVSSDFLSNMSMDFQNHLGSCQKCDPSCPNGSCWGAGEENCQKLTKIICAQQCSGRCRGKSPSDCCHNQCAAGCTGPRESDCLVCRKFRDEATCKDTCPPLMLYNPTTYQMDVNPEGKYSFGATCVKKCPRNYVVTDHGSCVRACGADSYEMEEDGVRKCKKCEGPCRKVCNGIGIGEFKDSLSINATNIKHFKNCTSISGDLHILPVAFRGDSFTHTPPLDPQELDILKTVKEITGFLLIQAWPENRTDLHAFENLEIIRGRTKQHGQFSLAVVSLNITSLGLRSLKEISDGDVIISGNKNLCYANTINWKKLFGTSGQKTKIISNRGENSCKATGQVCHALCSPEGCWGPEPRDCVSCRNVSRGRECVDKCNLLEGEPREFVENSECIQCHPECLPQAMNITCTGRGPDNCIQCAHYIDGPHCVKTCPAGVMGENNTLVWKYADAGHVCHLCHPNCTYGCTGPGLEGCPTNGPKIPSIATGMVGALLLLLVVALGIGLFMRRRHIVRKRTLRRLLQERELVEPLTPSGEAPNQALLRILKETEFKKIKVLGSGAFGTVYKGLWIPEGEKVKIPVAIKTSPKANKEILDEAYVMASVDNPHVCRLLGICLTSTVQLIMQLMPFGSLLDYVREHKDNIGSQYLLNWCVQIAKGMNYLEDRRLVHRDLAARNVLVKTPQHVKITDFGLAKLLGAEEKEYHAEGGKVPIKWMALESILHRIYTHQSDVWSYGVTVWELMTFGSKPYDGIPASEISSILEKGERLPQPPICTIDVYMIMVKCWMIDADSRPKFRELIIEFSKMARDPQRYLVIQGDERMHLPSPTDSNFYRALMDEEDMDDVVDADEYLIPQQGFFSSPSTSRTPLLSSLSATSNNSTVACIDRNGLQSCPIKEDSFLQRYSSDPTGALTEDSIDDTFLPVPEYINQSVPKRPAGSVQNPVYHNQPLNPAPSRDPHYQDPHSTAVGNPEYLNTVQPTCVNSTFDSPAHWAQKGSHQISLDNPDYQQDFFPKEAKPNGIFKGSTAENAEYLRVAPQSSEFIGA

| SMILES | DC50 [1, 4] [nM] | Dmax [1, 5] [%] | DC50 [2, 6] [nM] | Dmax [2, 7] [%] | HL [3] [h] | AUC(0-inf) [3] [ng·h/mL] | AUC(0-t) [3] [ng·h/mL] | Cmax [3] [ng/mL] | MRT last [3] [h] | Tmax [3] [h] | DC50 ([1]; read-out: Baf3-DTC DC50; Baf3-DTC, incubated 16 hours, HTRF total EGFR) [nM] | Dmax ([1]; read-out: Baf3-DTC Dmax) [%] | DC50 ([2]; read-out: Baf3-LTC DC50; Baf3-LTC, incubated 16 hours, HTRF total EGFR) [nM] | Dmax ([2]; read-out: Baf3-LTC Dmax) [%] |
| --- | --- | --- | --- | --- | --- | --- | --- | --- | --- | --- | --- | --- | --- | --- |
| COc1cc(N2CCC(CN3CCN(c4ccc5c(c4)C(=O)N(C4CCC(=O)NC4=O)C5=O)CC3)CC2)c(-c2cnn(C)c2)cc1Nc1ncc(Br)c(Nc2ccc(C3CC3)cc2P(C)(C)=O)n1 (centres unmarked) [DZL-1, reference compound] | 10 to 100 | 70 to 100 | 10 to 100 | 70 to 100 | 3.08 | 8460 | 8070 | 699 | 6.11 | 4 |  |  |  |  |
| CCc1cc(Nc2ncc(Cl)c(Nc3ccccc3C(=O)NC)n2)c(OC)cc1N1CCN(C(=O)CN2CCC(c3cc4c(cc3F)c(N3CCC(=O)NC3=O)nn4C)C(F)(F)C2)CC1 (centres unmarked) [TA-003] |  |  |  |  | 3.22 | 3800 | 3770 | 441 | 5.63 | 2 | 10 to 100 | 70 to 100 | 10 to 100 | 70 to 100 |
| CCc1cc(Nc2ncc(Cl)c(Nc3ccccc3P(C)(C)=O)n2)c(OC)cc1N1CC2(CCN(C(=O)CN3CCC(c4cc5c(cc4F)c(N4CCC(=O)NC4=O)nn5C)C(F)(F)C3)CC2)C1 (centres unmarked) [TA-023] | 10 to 100 | 70 to 100 | 10 to 100 | 70 to 100 | 3.99 | 3980 | 3920 | 580 | 5.1 | 2 |  |  |  |  |
| CCc1cc(Nc2ncc(Cl)c(Nc3ccccc3P(C)(C)=O)n2)c(OC)cc1N1CCN(C(=O)CN2CCC(c3cc4c(cc3F)c(N3CCC(=O)NC3=O)nn4C)C(F)(F)C2)CC1 (centres unmarked) [TC-157] | < 10 |  | < 10 |  | 2.66 | 5800 | 7530 | 768 | 5.52 | 3.33 |  | 70 to 100 |  | 70 to 100 |
| CCc1cc(Nc2ncc(Cl)c(Nc3ccccc3P(C)(C)=O)n2)c(OC)cc1N1CCN(C(=O)CN2CCC(c3cc4c(cc3F)c(N3CCC(=O)NC3=O)nn4C)CC2)CC1 [TC-213] | 10 to 100 | 70 to 100 | 10 to 100 | 70 to 100 | 3.48 | 8150 | 8070 | 742 | 6.22 | 4 |  |  |  |  |
